Assay results published in PubChem BioAssay (NCI).
Where “and” joins values, the source holds several entries; their conditions need not be identical. Equal values may be shown once.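 Where inhibition never reached the appropriate level, the endpoint shown equals the highest concentration tested. Otherwise, values were interpolated linearly from a five-concentration, 48-hour dose response in 96-well plates. GI50 is the concentration that inhibits growth by half. TGI marks complete inhibition of growth.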

Legend:
Assay in all cases: growth of human tumour cells (NCI), 48 h
HL-60(TB) leukemia = system: HL-60(TB) leukemia
SK-MEL-2 melanoma = system: SK-MEL-2 melanoma
HOP-92 NSCLC = system: HOP-92 NSCLC
K-562 leukemia = system: K-562 leukemia
UACC-257 melanoma = system: UACC-257 melanoma
TK-10 renal = system: TK-10 renal
RPMI-8226 leukemia = system: RPMI-8226 leukemia
IGROV1 ovarian = system: IGROV1 ovarian
COLO 205 colon = system: COLO 205 colon
MDA-MB-231 breast = system: MDA-MB-231 breast

| SMILES | GI50 (HL-60(TB) leukemia) | TGI (HL-60(TB) leukemia) | GI50 (SK-MEL-2 melanoma) | TGI (SK-MEL-2 melanoma) | GI50 (HOP-92 NSCLC) | TGI (HOP-92 NSCLC) | GI50 (K-562 leukemia) | TGI (K-562 leukemia) | GI50 (UACC-257 melanoma) [µM] | TGI (UACC-257 melanoma) | GI50 (TK-10 renal) | TGI (TK-10 renal) | GI50 (RPMI-8226 leukemia) | TGI (RPMI-8226 leukemia) | GI50 (IGROV1 ovarian) | TGI (IGROV1 ovarian) | GI50 (COLO 205 colon) | TGI (COLO 205 colon) | GI50 (MDA-MB-231 breast) [µM] | TGI (MDA-MB-231 breast) [µM] |
| --- | --- | --- | --- | --- | --- | --- | --- | --- | --- | --- | --- | --- | --- | --- | --- | --- | --- | --- | --- | --- |
| CC[C@H](C)[C@H](NC(=O)CN(C)C)C(=O)N(C)[C@H](C[C@@H](OC(C)=O)c1nc(C(=O)NC23C4C5C2C2C3C4C52C(=O)OC)cs1)C(C)C (stereo partly specified) | 0.0777 µM | 0.242 µM | 0.838 µM | > 33.2 µM | > 33.2 µM | > 33.2 µM | 0.138 µM | > 33.2 µM | 4.31 | > 33.2 µM | 9.48 µM | > 33.2 µM | 0.115 µM | > 11.4 µM | 0.428 µM | > 33.2 µM | 0.247 µM | 5.53 µM | 0.352 | 4.62 |
| CCCCCn1sc(=O)n(Cc2ccc(CNC(=O)C(C)c3ccc(CC(C)C)cc3)cc2)c1=O (stereo unspecified) | 1.68 µM | > 20.5 µM | 1.5 µM | 2.98 µM | 0.577 µM | 2.09 µM | 0.602 µM | > 61.1 µM | 1.48 | 3.02 µM | 0.736 µM | 2.05 µM | 0.353 µM | 2.1 µM | 0.645 µM | 2 µM | 0.598 µM | 2.08 µM | 1.18 | 2.46 |
| COc1cc(/C=N\Nc2ccccc2)ccc1OC(=O)c1ccccc1 | 0.544 µM | > 72.1 µM | 2.1 µM | 60 µM | 12.2 µM | > 89 µM | 0.369 µM | 11.8 µM | 7.12 | > 100 µM | 16.5 µM | 68.3 µM | 3.79 µM | > 55.9 µM | 2.76 µM | > 100 µM | 6.48 µM | 25.5 µM | 1.91 | 32.2 |
| C=C1C(C)C2C(Cc3ccccc3)NC(=O)C23C(OC(C)=O)C=CC(C)(O)C(=O)C(C)C/C=C/C3C1O (stereo unspecified) | 1.61 µM | 20.5 µM and 15.7 µM | – | 74.8 µM | 0.171 µM | 2.45 µM and 1.21 µM | 13.6 µM | > 500 µM | 26.3 | 45.4 µM and 335 µM | 0.732 µM | – | 3.9 µM | 65.5 µM and > 500 µM | 0.79 µM | – | 0.0825 µM | > 500 µM | 0.193 | > 220 |
| CNC(=O)c1sc(-n2cnc3cc(OC)c(OC)cc32)cc1OCc1ccccc1C(F)(F)F | > 15.8 µM | > 25 µM | > 25 µM | > 25 µM | 2.2 µM | > 25 µM | > 25 µM | > 25 µM | > 25 | > 25 µM | > 25 µM | > 25 µM | > 25 µM | > 25 µM | > 25 µM | > 25 µM | > 25 µM | > 25 µM | 15.9 | > 25 |
| COc1cc(F)c(F)c(Nc2ccc(I)cc2F)c1NS(=O)(=O)C1(CC(O)CO)CC1 (stereo unspecified) | 7.19 µM | 57.7 µM | 4.1 µM | 18.8 µM | 1.13 µM | 19.6 µM | 15.7 µM | > 81.7 µM | 3.05 | 19.5 µM | 14.9 µM | 72.1 µM | 16 µM | 54.6 µM | 10.4 µM | 34.4 µM | 3.43 µM | 16.1 µM | 11 | 27.3 |
| CCc1ccc([OH2+])c(C(=O)[O-])c1.CCc1ccc([OH2+])c(C(=O)[O-])c1.CCc1ccc([OH2+])c(C(=O)[O-])c1.CCc1ccc([OH2+])c(C(=O)[O-])c1.[Cu+2].[Cu+2] | 2.4 µM | > 44.4 µM | > 91.3 µM | > 100 µM | > 95.9 µM | > 100 µM | 38.1 µM | > 73.9 µM | > 100 | > 100 µM | > 85.8 µM | > 100 µM | 41.3 µM | > 100 µM | > 69.6 µM | > 100 µM | > 100 µM | > 100 µM | > 100 | > 100 |
| CSc1ccc(-c2cn3ccsc3n2)cc1 | 2.42 µM | > 50 µM | 4 µM | > 92.9 µM | 6.81 µM | > 78.9 µM | 4.85 µM | > 100 µM | 28.7 | > 100 µM | 18 µM | > 84.7 µM | 9.2 µM | > 100 µM | 5.73 µM | > 75.5 µM | 14.4 µM | > 100 µM | 31.8 | > 100 |
| COc1cc2c3c(c4cc(OC)c(OC)cc4c2cc1OC)CN1CCC[C@H]1C3 | 0.0853 µM and < 0.0165 µM | – | 0.0297 µM and < 0.01 µM | – | 0.0366 µM and < 0.0105 µM | 1.34 µM and 0.695 µM | – | > 10 µM and 19.3 µM | – | 0.338 µM and 0.937 µM | – | 0.103 µM and 0.497 µM | 0.0906 µM and < 0.0175 µM | 0.435 µM and 2.13 µM | 0.0433 µM and < 0.01 µM | 1.45 µM and 1.42 µM | 0.0592 µM and < 0.01 µM | – | – | 0.174 |
| N#Cc1cnn(C(=O)c2nn(-c3ccc(Cl)cc3)cc2O)c1N | 0.354 µM | 2.27 µM | 0.908 µM | 18.9 µM | 0.405 µM | 27.3 µM | 0.253 µM | – | 0.47 | 10.6 µM | 0.267 µM | 7.34 µM | 0.21 µM | 0.657 µM | 0.365 µM | 12.7 µM | 0.619 µM | 2.13 µM | 0.708 | 19.2 |
| COc1cc2c(cc1O)CCN[C@@]21CS[C@H]2c3c(OC(C)=O)c(C)c4c(c3C(COC1=O)N1C2C2NC(Cc3cc(C)c(OC)c(O)c32)[C@@H]1O)OCO4 (stereo partly specified) | – | > 100 µM and 8.2e-07 µg/mL | 4.5 ng/mL | < 10 nM and 0.0045 µg/mL | 0.000135 ng/mL | 9.17 µM and 5.9e-07 µg/mL | 4.5 ng/mL | 11.3 µM and 0.0045 µg/mL | – | 14.7 nM and 2.1e-07 µg/mL | 0.00184 ng/mL and 4.5 ng/mL | 13.1 µM and 6.24 µg/mL | – | > 100 µM and 6.4e-07 µg/mL | 0.000551 ng/mL and 4.5 ng/mL | 10.5 µM and 0.000362 µg/mL and 0.0045 µg/mL | 4.5 ng/mL | < 10 nM and 1.9e-07 µg/mL and 0.0045 µg/mL | – | < 0.01 |
| O=C1OC(c2ccccc2)=N/C1=C\c1ccccc1 | – | 99.2 µM and 84.4 µM | – | 46.8 µM | – | > 100 µM | > 100 µM and 19.8 µM | > 100 µM and 46.3 µM | – | 59.7 µM and > 100 µM | – | > 100 µM | – | > 100 µM and 56.8 µM | – | > 100 µM | > 100 µM and 37.2 µM | > 100 µM | – | > 100 |
| COc1ccc(/C(=C(\c2ccccc2)[N+](=O)[O-])c2ccc(OCCN3CCCC3)cc2)cc1 | 1.94 µM | 4.6 µM | 2.06 µM | 5.06 µM | 2.25 µM | 12 µM | 1.1 µM | 6.14 µM | 2.04 | 4.64 µM | 5.17 µM | 20.1 µM | 2.53 µM | 10.6 µM | 3.57 µM | 17.3 µM | 1.46 µM | 3.14 µM | 2.76 | 6.98 |
| COc1ccccc1NC(=O)c1sc2ncn(CCOc3ccccc3)c(=O)c2c1C | 1.93 µM | > 50 µM | 3.37 µM | > 50 µM | > 50 µM | > 50 µM | 0.761 µM | 4.39 µM | 1.49 | > 50 µM | > 50 µM | > 50 µM | 9.2 µM | > 50 µM | 1.9 µM | > 50 µM | 2.88 µM | > 50 µM | 2.61 | > 50 |
| CN1CCN(Cc2ccc(NC(=O)c3cncc(C#Cc4c(N)ncc5ccccc45)c3)cc2C(F)(F)F)CC1 | 0.16 µM | 0.781 µM | 0.782 µM | 1.72 µM | 0.158 µM | 0.836 µM | 0.005 µM | 0.715 µM | 0.773 | 1.6 µM | 0.919 µM | 1.66 µM | 0.835 µM | 2.36 µM | 0.373 µM | 1.2 µM | 0.213 µM | 0.812 µM | 0.336 | 1.04 |
| COc1cccc(/C=C\C(=O)c2ccccc2)c1 | 5.98 µM | > 100 µM | 18 µM | 34.8 µM | 6.46 µM | 26.2 µM | 6.27 µM | > 100 µM | 17.7 | 33.3 µM | 13.7 µM | 30.4 µM | 16.2 µM | > 100 µM | 3.19 µM | 21.2 µM | 7.82 µM | 40.8 µM | 17.1 | 36.2 |
| CC1CCc2c(C(=O)Nc3ncc(Cc4cccc([N+](=O)[O-])c4)s3)csc2C1 (stereo unspecified) | 0.324 µM | 3.8 µM | 0.586 µM | > 100 µM | 2.68 µM | > 100 µM | 0.213 µM | > 100 µM | 3.77 | > 100 µM | 5.04 µM | > 100 µM | 1.14 µM | > 100 µM | 0.753 µM | > 100 µM | 0.37 µM | 19.6 µM | 1.03 | > 100 |
| COc1cc(OC)c(/C=C/S(=O)(=O)Cc2ccc(OC)c(N)n2)c(OC)c1 | < 0.01 µM | < 0.0273 µM | – | > 100 µM | 0.093 µM | > 100 µM | < 0.01 µM | > 100 µM | > 100 | > 100 µM | > 100 µM | > 100 µM | < 0.0172 µM | > 85.9 µM | < 0.0122 µM | > 100 µM | < 0.01 µM | < 0.01 µM | < 0.0248 | > 100 |
| O=C1c2ccc3c4c(ccc(c24)C(=O)N1CCCCO)C(=O)N(CCCCO)C3=O | 2.07 µM | 7.43 µM | 1.84 µM | 6.88 µM | 3.51 µM | 7.98 µM | 2.54 µM | > 100 µM | 1.3 | 2.71 µM | 5.29 µM | 32.5 µM | 2.79 µM | 14.3 µM | 2.12 µM | 5.87 µM | 0.888 µM | 2.5 µM | 2.9 | 97.9 |
